Columns and labels:
[1] = system: forearms of human volunteers; test: Further human vasoconstriction testing, AUC through 24 hours; assay type: in vivo; conditions: for AUC (sum of the individual vasoconstriction scores through 24 hours): total of 6 tests; for effect of increasing the ratio of (II) to (Ia/Ib) to about 2:1: HC 25 mM + enhancer 50 mM versus 1:1; for synergism with HC: ratios of HC:enhancer from 5:1 to 1:2
Procedure: The objective of this study was to evaluate the effect of Δ^1-cortienic acid (Δ^1-CA) and the methyl ester of Δ^1-cortienic acid (Δ^1-MeCA) on the vasoconstriction effect of hydrocortisone (HC). The structures for HC, Δ^1-CA and Δ^1-MeCA are given above.
HC (50 mM), Δ^1-CA (0, 10, 25, 50 and 100 mM) and Δ^1-MeCA (0, 10, 25, 50 and 100 mM) were dissolved in a vehicle containing absolute ethanol and propylene glycol (9:1). The resultant HC solutions were mixed (1:1) with vehicle only, or with the Δ^1-CA or Δ^1-MeCA solutions, so that 25 mM of final HC solutions containing various concentrations of Δ^1-CA or Δ^1-MeCA (0 to 50 mM) were obtained. The resultant mixtures (20 μl) were loaded onto circular paper discs (7 mm diameter) that were attached to a water impervious adhesive film (3M). After evaporation of ethanol, the films were applied to the forearms of human volunteers for 4 hours.
Subsequently, the vasoconstriction reaction was judged by the appearance of pallor at various time intervals after the removal of the discs and films (2, 4, 6, 8, 10, 12, 18 and 24 hours after removal). The grading scale was as follows: 0, normal skin; 1, slight pallor; 2, pallor with at least two corners outlined; 3, even pallor with a clear outline of the application sites; 4, very intense pallor. Due to the relatively high variations in response between volunteers, the total score of 6 tests at each time period was taken for the activity evaluation. As before, an overall total for each concentration was obtained. The results were as follows, where AUC was estimated at the sum of the individual scores through 24 hours.

[2] = system: forearm of a human volunteer; test: Human vasoconstriction (blanching) testing, AUC through 18 hours; assay type: in vivo; conditions: for effect on the time period during which hydrocortisone displayed activity / effect on the vasoconstrictor activity of hydrocortisone: co-applied with hydrocortisone; for effect on the vasoconstrictor activity of hydrocortisone: molar ratio hydrocortisone:enhancer 1:5 to 1:1, particularly at the lower concentrations
Procedure: The combinations of the present invention have undergone human vasoconstriction, or blanching, testing. Such testing gives a reliable indication of local anti-inflammatory/glucocorticoid activity.
Test compounds at varying mM concentrations as noted below were dissolved in ethanol/propylene glycol (9/1) solution, and 20 μL of the mixtures were applied to filter paper discs, 0.7 cm in diameter. After ethanol evaporation, each disc was attached to waterproof adhesive tape, then applied to the forearm of a human volunteer and left in place for 4 hours. Groups of 6 forearms were tested at each concentration and the intensity of vasoconstriction was judged at 2, 4, 6, 8, 10, 12 and 18 hours after removal of the discs, except where otherwise indicated.
The grading scale for the vasoconstriction activity was as follows: 0, normal skin; 1, slight pallor of indistinct outline; 2, pallor with at least two corners outlined; 3, even pallor with a clear outline of the application sites; 4, very intense pallor. The scores were totaled at each concentration at each time after removal to give a total score at each time interval and an overall total for each concentration. The higher the total score, the greater the blanching or anti-inflammatory effect.
Tested in this manner were hydrocortisone, Δ^1-cortienic acid, the methyl ester of Δ^1-cortienic acid, a combination of hydrocortisone plus Δ^1-cortienic acid, and a combination of hydrocortisone plus the methyl ester of Δ^1-cortienic acid. The structures of the test compounds are shown below:
The data for Δ^1-CA alone and Δ^1-MeCA alone are from a group of 8 volunteers, rather than the 6 used for the other testing.

[3] = target: T1, receptor ([3H]-triamcinolone acetonide as tracer) (Rattus norvegicus, UniProt P06536); conditions: medium containing 10^−5M cortienic acid as competitor; cited from earlier work
T1 sequence (P06536 1-795): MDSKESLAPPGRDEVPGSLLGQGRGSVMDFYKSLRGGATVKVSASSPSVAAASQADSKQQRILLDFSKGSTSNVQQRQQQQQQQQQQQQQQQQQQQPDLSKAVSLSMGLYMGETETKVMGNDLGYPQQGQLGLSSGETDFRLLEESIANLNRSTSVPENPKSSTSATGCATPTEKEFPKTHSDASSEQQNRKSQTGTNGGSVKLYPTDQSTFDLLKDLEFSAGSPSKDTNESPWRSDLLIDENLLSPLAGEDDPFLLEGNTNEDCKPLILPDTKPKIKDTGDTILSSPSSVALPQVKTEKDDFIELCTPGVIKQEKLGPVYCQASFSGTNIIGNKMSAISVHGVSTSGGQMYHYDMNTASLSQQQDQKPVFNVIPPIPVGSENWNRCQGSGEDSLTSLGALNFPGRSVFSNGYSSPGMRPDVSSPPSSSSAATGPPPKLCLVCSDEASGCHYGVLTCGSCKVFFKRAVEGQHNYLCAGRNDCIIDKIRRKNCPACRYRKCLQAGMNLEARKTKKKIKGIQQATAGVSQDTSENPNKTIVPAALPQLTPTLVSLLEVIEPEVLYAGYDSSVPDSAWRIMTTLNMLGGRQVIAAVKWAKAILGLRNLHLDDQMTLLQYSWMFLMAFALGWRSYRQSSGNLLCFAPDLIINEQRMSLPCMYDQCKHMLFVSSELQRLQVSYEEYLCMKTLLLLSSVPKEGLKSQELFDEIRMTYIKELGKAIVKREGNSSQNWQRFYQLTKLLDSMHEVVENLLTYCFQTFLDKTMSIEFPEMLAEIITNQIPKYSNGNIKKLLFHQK

[4] = system: forearms of human volunteers; test: Further human vasoconstriction testing, AUC through 24 hours; assay type: in vivo; conditions: enhancing agent alone, 0.5-50 mM
[5] = enhancing agent alone, 0.5 mM, group of 8 volunteers
[6] = enhancing agent alone, 2.5 mM, group of 8 volunteers
[7] = enhancing agent alone, 5 mM, group of 8 volunteers
[8] = enhancing agent alone, 25 mM, group of 8 volunteers
[9] = enhancing agent alone, 50 mM, group of 8 volunteers

Compound	vasoconstriction activity when tested alone [2]	effect of increasing the ratio of (II) to (Ia/Ib) to about 2:1 [1]	effect on the vasoconstriction activity of HC ([1]; co-applied with HC 25 mM)	synergism with HC [1]	effect on the time period during which hydrocortisone displayed activity [2]	effect on the vasoconstrictor activity of hydrocortisone [2]	AUC (sum of the individual vasoconstriction scores through 18 hours) [2, 5]	AUC (sum of the individual vasoconstriction scores through 18 hours) [2, 6]	AUC (sum of the individual vasoconstriction scores through 18 hours) [2, 7]	AUC (sum of the individual vasoconstriction scores through 18 hours) [2, 8]	AUC (sum of the individual vasoconstriction scores through 18 hours) [2, 9]	AUC (sum of the individual vasoconstriction scores) [4]	other results
C[C@]12CCC(=O)C=C1CC[C@@H]1[C@@H]2[C@@H](O)C[C@@]2(C)[C@H]1CC[C@]2(O)C(=O)CO [Hydrocortisone, hydrocortisone, reference compound]	exhibited activity	–	–	–	–	–	–	–	–	–	–	–	AUC (sum of the individual vasoconstriction scores through 24 hours) ([1]; HC 25 mM + Δ^1-CA 0 mM (HC alone, Δ^1-CA series)): 14; AUC (sum of the individual vasoconstriction scores through 24 hours) ([1]; HC 25 mM + Δ^1-MeCA 0 mM (HC alone, Δ^1-MeCA series)): 33; time after removal of the disc by which activity was nearly gone ([2]; hydrocortisone alone): ~12 h; AUC (sum of the individual vasoconstriction scores through 18 hours) ([2]; hydrocortisone alone, 1 mM (0.036% by weight), 20 μL on disc, 4 hours, 6 forearms): 0; AUC (sum of the individual vasoconstriction scores through 18 hours) ([2]; hydrocortisone alone, 2 mM (0.073%), 6 forearms): 0; AUC (sum of the individual vasoconstriction scores through 18 hours) ([2]; hydrocortisone alone, 5 mM (0.181%), 6 forearms): 0; AUC (sum of the individual vasoconstriction scores through 18 hours) ([2]; hydrocortisone alone, 10 mM (0.363%), 6 forearms): 3; AUC (sum of the individual vasoconstriction scores through 18 hours) ([2]; hydrocortisone alone, 25 mM (0.906%), 6 forearms): 5; AUC (sum of the individual vasoconstriction scores through 18 hours) ([2]; hydrocortisone alone, 50 mM (1.81%), 6 forearms): 18
CCOC(=O)O[C@]1(C(=O)OCCl)CC[C@H]2[C@@H]3CCC4=CC(=O)C=C[C@]4(C)[C@H]3[C@@H](O)C[C@@]21C [loteprednol, loteprednol etabonate]	–	–	–	–	–	–	–	–	–	–	–	–	intrinsic activity in receptor binding [3]: intrinsically active
COC(=O)[C@@]1(O)CCC2C3CCC4=CC(=O)C=CC4(C)C3C(O)CC21C (stereo partly drawn) [Δ^1-Cortienic Acid Methyl Ester, methyl 11β,17α-dihydroxyandrosta-1,4-dien-3-one-17β-carboxylate]	neither Δ^1-cortienic acid nor Δ^1-cortienic acid methyl ester had any vasoconstriction activity	does not appear to add any significant benefit	increased the vasoconstriction activity of HC	synergistic results	able to extend the time period	enhanced the vasoconstrictor activity of hydrocortisone	0	0	0	0	0	0	time after which pallor could still be detected in one arm ([1]; co-applied with HC): ≥ 5 days; increasing activity and duration compared with Δ^1-CA ([1]; co-applied with HC 25 mM): higher increasing activity and longer duration
CC12C=CC(=O)C=C1CCC1C2C(O)CC2(C)C1CC[C@]2(O)C(=O)O (stereo partly drawn) [Δ^1-Cortienic Acid, 11β,17α-dihydroxyandrosta-1,4-dien-3-one-17β-carboxylic acid]	neither Δ^1-cortienic acid nor Δ^1-cortienic acid methyl ester had any vasoconstriction activity	appears to decrease activity	increased the vasoconstriction activity of HC	synergistic results	able to extend the time period	enhanced the vasoconstrictor activity of hydrocortisone	0	0	0	0	0	0	–

— patent publication US7776846B2, “Enhancement of activity and/or duration of action of selected anti-inflammatory steroids for topical or other local application” (priority 2003, dated 2010)
